Laboratory results taken from ChEMBL document CHEMBL3217559, “Monocyte and macrophage selective anti-inflammatory kinase inhibitors” (Medchemcomm, 2012).

Assays:
MAP kinase p38 [1] = target: T1, MAP kinase p38 (Homo sapiens, UniProt O15264+Q15759+Q16539+P53778); assay: Inhibition of p38 MAP kinase-mediated MAPKAPK2 phosphorylation in human Hut78 cells after 4 hrs by chemiluminescence assay; assay type: cell-based
THP-1 = assay: Inhibition of LPS-induced TNFalpha production in human THP1 cells; assay type: functional, cell-based
MAP kinase p38 [2] = target: T1, MAP kinase p38; assay: Inhibition of p38 MAP kinase-mediated MAPKAPK2 phosphorylation in human U937 cells after 4 hrs by chemiluminescence assay; assay type: cell-based; conditions: u-937
Liver carboxylesterase 1 [3] = target: T2, Liver carboxylesterase 1 (Homo sapiens, UniProt P23141); assay: Drug metabolism in intact human U937 cells assessed as human CE1-mediated 5-(4-{6-Amino-5-[(2,4-difluorophenyl)carbonyl]-2-oxopyridiny1(2H)-yl}-3,5-difluorophenoxy)-L-norvaline formation per million cells at 2.5 uM after 6 hrs by LC/MS/MS analysis; assay type: ADME, cell-based; conditions: u-937, 6 h
T2 sequence (P23141 whole entry): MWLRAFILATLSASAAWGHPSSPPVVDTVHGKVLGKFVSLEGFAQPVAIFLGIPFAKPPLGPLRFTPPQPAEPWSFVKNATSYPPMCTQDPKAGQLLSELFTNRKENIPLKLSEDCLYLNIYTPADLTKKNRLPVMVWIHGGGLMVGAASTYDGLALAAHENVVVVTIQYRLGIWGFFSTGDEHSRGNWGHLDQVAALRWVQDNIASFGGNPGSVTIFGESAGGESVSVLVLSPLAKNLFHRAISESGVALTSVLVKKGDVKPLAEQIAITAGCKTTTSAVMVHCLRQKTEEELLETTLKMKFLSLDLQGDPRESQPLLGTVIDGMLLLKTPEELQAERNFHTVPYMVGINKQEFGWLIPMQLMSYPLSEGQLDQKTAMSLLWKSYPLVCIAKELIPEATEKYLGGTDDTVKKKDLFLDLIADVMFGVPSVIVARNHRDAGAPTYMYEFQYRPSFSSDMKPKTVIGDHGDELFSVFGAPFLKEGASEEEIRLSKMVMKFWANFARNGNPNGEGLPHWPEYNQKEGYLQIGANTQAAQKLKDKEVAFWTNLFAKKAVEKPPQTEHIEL

Blood = assay: Inhibition of LPS-induced TNFalpha production in human whole blood; assay type: functional, tissue-based
HuT78 [4] = assay: Drug metabolism in human HUT78 cell lysate assessed as 5-(4-{6-Amino-5-[(2,4-difluorophenyl)carbonyl]-2-oxopyridiny1(2H)-yl}-3,5-difluorophenoxy)-L-norvaline formation at 2.5 uM after 10 to 80 mins by LC/MS/MS analysis; assay type: ADME, cell-based; conditions: hut78, 2.5 µM
[5] = target: Mitogen-activated protein kinase 14 (Homo sapiens, UniProt Q16539); assay: Inhibition of p38 MAP kinase alpha (unknown origin) after 1 hr by Z'-lyte assay
HuT78 [6] = assay: Drug metabolism in intact human HUT78 cells assessed as 5-(4-{6-Amino-5-[(2,4-difluorophenyl)carbonyl]-2-oxopyridiny1(2H)-yl}-3,5-difluorophenoxy)-L-norvaline formation per million cells at 2.5 uM after 6 hrs by LC/MS/MS analysis; assay type: ADME, cell-based; conditions: hut78, 6 h
Liver carboxylesterase 1 [7] = target: T2, Liver carboxylesterase 1; assay: Drug metabolism in human U937 cell lysate assessed as human CE1-mediated 5-(4-{6-Amino-5-[(2,4-difluorophenyl)carbonyl]-2-oxopyridiny1(2H)-yl}-3,5-difluorophenoxy)-L-norvaline formation at 2.5 uM after 10 to 80 mins by LC/MS/MS analysis; assay type: ADME, cell-based; conditions: u-937, 2.5 µM
Liver carboxylesterase 1 [8] = target: T2, Liver carboxylesterase 1; assay: Drug metabolism in human U937 cell lysate assessed as human CE1-mediated N-[2-(4-{6-Amino-5-[(2,4-difluorophenyl)carbonyl]-2-oxopyridin-1(2H)-yl}-3,5 difluorophenyl)ethyl]-L-leucine formation at 2.5 uM after 10 to 80 mins by LC/MS/MS analysis; assay type: ADME, cell-based; conditions: u-937, 2.5 µM
Liver carboxylesterase 1 [9] = target: T2, Liver carboxylesterase 1; assay: Drug metabolism in intact human U937 cells assessed as human CE1-mediated N-[2-(4-{6-Amino-5-[(2,4-difluorophenyl)carbonyl]-2-oxopyridin-1(2H)-yl}-3,5 difluorophenyl)ethyl]-L-leucine formation per million cells at 2.5 uM after 6 hrs by LC/MS/MS analysis; assay type: ADME, cell-based; conditions: u-937, 6 h
HuT78 [10] = assay: Drug metabolism in human HUT78 cell lysate assessed as N-[2-(4-{6-Amino-5-[(2,4-difluorophenyl)carbonyl]-2-oxopyridin-1(2H)-yl}-3,5 difluorophenyl)ethyl]-L-leucine formation at 2.5 uM after 10 to 80 mins by LC/MS/MS analysis; assay type: ADME, cell-based; conditions: hut78, 2.5 µM
HuT78 [11] = assay: Drug metabolism in intact human HUT78 cells assessed as N-[2-(4-{6-Amino-5-[(2,4-difluorophenyl)carbonyl]-2-oxopyridin-1(2H)-yl}-3,5 difluorophenyl)ethyl]-L-leucine formation per million cells at 2.5 uM after 6 hrs by LC/MS/MS analysis; assay type: ADME, cell-based; conditions: hut78, 6 h

Chain of Mitogen-activated protein kinase 14 (Q16539 whole entry): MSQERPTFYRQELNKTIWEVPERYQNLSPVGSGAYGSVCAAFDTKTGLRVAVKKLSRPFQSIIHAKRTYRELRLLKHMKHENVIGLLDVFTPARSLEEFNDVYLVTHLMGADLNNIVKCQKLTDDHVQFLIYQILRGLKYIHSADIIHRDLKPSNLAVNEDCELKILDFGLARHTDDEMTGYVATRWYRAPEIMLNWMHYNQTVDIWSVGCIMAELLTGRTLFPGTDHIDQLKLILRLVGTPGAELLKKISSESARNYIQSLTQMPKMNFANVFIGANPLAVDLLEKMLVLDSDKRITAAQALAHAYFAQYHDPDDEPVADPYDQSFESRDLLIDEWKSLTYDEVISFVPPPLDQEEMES

Row | Compound | IC50 (MAP kinase p38 [1]) [nM] | IC50 (THP-1) [nM] | IC50 (MAP kinase p38 [2]) [nM] | Drug metabolism (Liver carboxylesterase 1 [3]) [ng] | IC50 (Blood) [nM] | Drug metabolism (HuT78 [4]) [pg/mL/min] | IC50 [5] [nM] | Drug metabolism (HuT78 [6]) [ng] | Drug metabolism (Liver carboxylesterase 1 [7]) [pg/mL/min] | Drug metabolism (Liver carboxylesterase 1 [8]) [pg/mL/min] | Drug metabolism (Liver carboxylesterase 1 [9]) [ng] | Drug metabolism (HuT78 [10]) [pg/mL/min] | Drug metabolism (HuT78 [11]) [ng]
1 | Nc1c(C(=O)c2ccc(F)cc2F)ccc(=O)n1-c1c(F)cc(OCCC[C@H](N)C(=O)OC2CCCC2)cc1F | 1 | 1.4 | 1 | 1407 | 28.8 | 14326 | 6.5 | 727 | 10613 |  |  |  | 
2 | CC(C)C[C@H](NCCc1cc(F)c(-n2c(N)c(C(=O)c3ccc(F)cc3F)ccc2=O)c(F)c1)C(=O)O |  |  |  |  |  |  | 1.2 |  |  |  |  |  | 

Continued, values first:

Row | IC50 (MAP kinase p38 [1]) [nM] | IC50 (THP-1) [nM] | IC50 (MAP kinase p38 [2]) [nM] | Drug metabolism (Liver carboxylesterase 1 [3]) [ng] | IC50 (Blood) [nM] | Drug metabolism (HuT78 [4]) [pg/mL/min] | IC50 [5] [nM] | Drug metabolism (HuT78 [6]) [ng] | Drug metabolism (Liver carboxylesterase 1 [7]) [pg/mL/min] | Drug metabolism (Liver carboxylesterase 1 [8]) [pg/mL/min] | Drug metabolism (Liver carboxylesterase 1 [9]) [ng] | Drug metabolism (HuT78 [10]) [pg/mL/min] | Drug metabolism (HuT78 [11]) [ng] | Compound
3 |  |  |  |  |  |  | 1 |  |  |  |  |  |  | Nc1c(C(=O)c2ccc(F)cc2F)ccc(=O)n1-c1c(F)cc(OCCC[C@H](N)C(=O)O)cc1F
4 | 73 | 0.74 | 0.65 |  | 57.5 |  | 273 |  |  | 3036 | 606 | < 20 | 0.5 | CC(C)C[C@H](NCCc1cc(F)c(-n2c(N)c(C(=O)c3ccc(F)cc3F)ccc2=O)c(F)c1)C(=O)OC1CCCC1
5 | 10 | 1.5 | 10 |  | 182 |  | 1.86 |  |  |  |  |  |  | Nc1c(C(=O)c2ccc(F)cc2F)ccc(=O)n1-c1c(F)cccc1F
